Assay results from patent US11613532B2, “Compounds active towards nuclear receptors” (NUEVOLUTION A/S, priority 2020, dated 2023).

Columns and labels:
RORγ = RORγ (Homo sapiens (Human), UniProt P51449); assay: RORγ Reporter Assay (Gal4); type: cell-based; conditions: HEK293 cells co-transfected with RORγ LBD-Gal4 and luciferase reporter; 24 h incubation; absolute IC50
Experimental: The activity of the compounds was evaluated using a RORγ Reporter assay (also referred to as Gal4 assay). The Gal4 and the Th17 assays (another suitable assay) are both cell-based assays monitoring functional activity of the compound assayed. The HEK293 cell line is co-transfected transiently with two plasmids, one with the RORγ ligand-binding domain fused to galactose-responsive transcription factor (Gal4), and the other with the luciferase reporter gene and Gal binding sites (UAS). This construction allows to determine the RORγ activity in a cellular system through the measurement of luminescence. […] Media formulation consisted in DMEM/F-12 medium (Gibco) supplemented with 10% heat inactivated FBS (Sigma-Aldrich), non-essential aminoacids (Sigma-Aldrich), 2 mM Glutamax (Gibco) and 100 U/mL penicillin (Sigma-Aldrich). Dose-response curves with compounds were prepared in 100% DMSO and further diluted […] in culture medium. Compound solutions were added to the plate containing cells (final DMSO concentration of 0.1%) and incubated for 24 h at 37° C. and 5% CO2. Luciferase detection reagent was added to each well, and relative light units (RLUs) were quantified from each assay well using a plate reading luminometer. Values of average RLU±S.D. were computed for all treatment sets, followed by the calculations of percent-reduction of RORγ activity in response to respective test compound. The following formula was used: activity=100*[1−[x test compound/average vehicle where the theoretical minimum reduction (0% reduction).

plasma IL-17A = assay: In vivo IL-17A induction in anti-CD3 model in mice; conditions: male C57BL/6JRj mice, anti-CD3e induced plasma IL-17A, oral gavage twice daily day 0 to day 3, 3 mg/kg
Experimental: Compounds disclosed herein have also been evaluated in a mouse in vivo pharmacodynamic model (anti-CD3-induced plasma IL-17A).
Male C57BL/6JRj mice (7 week old) were purchased from Janvier Labs and housed at the animal facilities of Almirall throughout the study. Animals were allowed to condition for 5 days in their new environment at 22° C.±2° C., 55%±10% relative humidity and 12 h:12 h light:dark cycles. Animals were housed in polycarbonate cages, with free access to water and non-purified stock diet (2014 Teklad Global 14% Protein Rodent Maintenance Diet, Envigo) during the full course of the studies. […]
Mice were injected intraperitoneally with 7.5 μg of anti-CD3e (Clone 145-2C11 from Pharmingen BD) at 0 h (day 0) and 48 h (day 3) time-points. […] Plasma levels of IL-17A were measured by ELISA (R&D Systems) according to the manufacturer's instruction. Results were calculated as the percentage of reduction of plasma IL-17A versus the difference between non-induced and anti-CD3e induced groups through the formula: inhibition=100*[1−[(x−mean non-induced)/(mean control vehicle−mean non-induced)]]. The IL-17A inhibition for each treatment can be expressed as the mean for each treatment group±S.E.M. Statistical analysis of data were conducted with one-way ANOVA followed by Dunnett's multiple comparisons test when appropriate. […]

RORγ, sequence (P51449 269-508): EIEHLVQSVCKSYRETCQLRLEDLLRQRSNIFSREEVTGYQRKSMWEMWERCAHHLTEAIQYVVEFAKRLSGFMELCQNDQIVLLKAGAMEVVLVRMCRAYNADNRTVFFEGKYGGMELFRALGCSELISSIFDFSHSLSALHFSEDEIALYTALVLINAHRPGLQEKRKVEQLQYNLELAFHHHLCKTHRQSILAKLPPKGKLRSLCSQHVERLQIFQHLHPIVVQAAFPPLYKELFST

IC50 (RORγ) [nM] | SMILES | Inhibition of IL-17A (%) at 3 mg/kg (plasma IL-17A) [%]
69 | CCN(CC1(F)CCC(C(F)(F)F)CC1)c1ncnc(NC[C@@H]2CCN(CC(N)=O)C[C@H]2O)c1F (single isomer, unassigned) [Example A6-7-2] | 
3.3 | CCN(C[C@H]1CC[C@H](C(F)(F)F)CC1)c1ncnc2c1ccn2C[C@]1(O)CCN(CC(N)=O)C[C@H]1O (single isomer, unassigned) [BD-5-1-1, 2-((3R*,4R*)-4-((4-(ethyl(((1r,4R)-4-(trifluoromethyl)cyclohexyl)methyl)amino)-7H-pyrrolo[2,3-d]pyrimidin-7-yl)methyl)-3,4-dihydroxypiperidin-1-yl)acetamide] | 
1.2 | CCN(C[C@H]1CC[C@H](C(F)(F)F)CC1)c1ncnc(NC[C@@]2(O)CCN(CC(N)=O)C[C@@H]2O)c1F (single isomer, unassigned) [AD-6-1, 2-((3R*,4R*)-4-(((6-(ethyl(((1r,4R)-4-(trifluoromethyl)cyclohexyl)methyl)amino)-5-fluoropyrimidin-4-yl)amino)methyl)-3,4-dihydroxypiperidin-1-yl)acetamide] | 95
43 | CCN(CC1(F)CCC(C(F)(F)F)CC1)c1ncnc(NC[C@@H]2CCN(CC(N)=O)C[C@H]2O)c1F (single isomer, unassigned) [Example A6-7-1] | 
980 | CCN(CC1CCC2(CC1)COC2)c1ncnc(NC[C@@H]2CCN(CC(N)=O)C[C@H]2O)c1F (single isomer, unassigned) [Example A6-6-2] | 
4.3 | CCN(C[C@H]1CC[C@H](C(F)(F)F)CC1)c1ncnc2c1ccn2C[C@]1(O)CCN(CC(N)=O)C[C@H]1O (single isomer, unassigned) [BD-5-1-2, 2-((3R*,4R*)-4-((4-(ethyl(((1r,4R)-4-(trifluoromethyl)cyclohexyl)methyl)amino)-7H-pyrrolo[2,3-d]pyrimidin-7-yl)methyl)-3,4-dihydroxypiperidin-1-yl)acetamide] | 
17 | NC(=O)CN1CC[C@@H](CNc2ncnc(N(C[C@H]3CC[C@H](C(F)(F)F)CC3)C3CCC3)c2F)[C@H](O)C1 (racemic) [Example A6-5, 2-((3RS,4RS)-4-(((6-(cyclobutyl(((1r,4R)-4-(trifluoromethyl)cyclohexyl)methyl)amino)-5-fluoropyrimidin-4-yl)amino)methyl)-3-hydroxypiperidin-1-yl)acetamide] | 
15 | CCN(C[C@H]1CC[C@H](C(F)(F)F)CC1)c1ncnc(NC[C@@]2(O)CCN(CC(N)=O)C[C@@H]2O)c1F (single isomer, unassigned) [AD-6-2, 2-((3R*,4R*)-4-(((6-(ethyl(((1r,4R)-4-(trifluoromethyl)cyclohexyl)methyl)amino)-5-fluoropyrimidin-4-yl)amino)methyl)-3,4-dihydroxypiperidin-1-yl)acetamide] | 
690 | CCN(CC1CCC2(CC1)COC2)c1ncnc(NC[C@@H]2CCN(CC(N)=O)C[C@H]2O)c1F (single isomer, unassigned) [Example A6-6-1] | 
35 | CCN(C[C@H]1CC[C@]2(CC1)CC2(F)F)c1ncnc(NC[C@@H]2CCN(CC(N)=O)C[C@H]2O)c1F (relative stereo) [Example A6-1-1-1, rel-2-((3R,4R)-4-(((6-(((1,1-Difluorospiro[2.5]octan-6-yl)methyl)(ethyl)amino)-5-fluoropyrimidin-4-yl)amino)methyl)-3-hydroxypiperidin-1-yl)acetamide] | 
49 | CCN(C[C@H]1CC[C@@]2(CC1)CC2(F)F)c1ncnc(NC[C@@H]2CCN(CC(N)=O)C[C@H]2O)c1F (single isomer, unassigned) [Example A6-1-2-1] | 

SMILES | IC50 (RORγ) [nM] | Inhibition of IL-17A (%) at 3 mg/kg (plasma IL-17A) [%]
CCN(CC1CCC2(CC1)CC2(F)F)c1ncnc(NC[C@H]2CCN(CC(N)=O)C[C@@H]2O)c1F (relative stereo) [Example A6-1-1-2, rel-2-((3R,4R)-4-(((6-(((1,1-Difluorospiro[2.5]octan-6-yl)methyl)(ethyl)amino)-5-fluoropyrimidin-4-yl)amino)methyl)-3-hydroxypiperidin-1-yl)acetamide] | 44 | 
